Laboratory results: the supplement of paper PMC10307832

How the values were obtained:
Assay in all cases: relative viability (nuclei count vs DMSO), 5 days (fraction); higher = more cells survive
[1] = compound: CCN1CCN(c2ccc(Nc3cc(N(C)C(=O)Nc4c(Cl)c(OC)cc(OC)c4Cl)ncn3)cc2)CC1 [BGJ398] + COc1cccc2cc(-c3nc([C@H]4CC[C@H](C(=O)O)CC4)n4ncnc(N)c34)[nH]c12 [OSI-027] (partner 0.5 µM)
How it was run: (§1)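 Dosing by pin tool came one day after lung cancer cell lines were seeded in 1536-well plates, using either one drug or a fixed anchor-drug dose plus five library-drug doses (not always all listed) in √10 steps. After 5 days, nuclei were counted on 4× images. Relative viability is treated-well nuclei count divided by vehicle-well nuclei count, and values are medians of duplicate plates.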

[2] = compound: CCN1CCN(c2ccc(Nc3cc(N(C)C(=O)Nc4c(Cl)c(OC)cc(OC)c4Cl)ncn3)cc2)CC1 [BGJ398] + O=C(CCCCCCC(=O)Nc1ccccc1)NO [Vorinostat] (partner 1 µM)
How it was run: as §1

[3] = compound: CCN1CCN(c2ccc(Nc3cc(N(C)C(=O)Nc4c(Cl)c(OC)cc(OC)c4Cl)ncn3)cc2)CC1 [BGJ398] + Cc1nc(NC(=O)N2CCC[C@H]2C(N)=O)sc1-c1ccnc(C(C)(C)C(F)(F)F)c1 [Alpelisib] (partner 2 µM)
How it was run: as §1

[4] = compound: CCN1CCN(c2ccc(Nc3cc(N(C)C(=O)Nc4c(Cl)c(OC)cc(OC)c4Cl)ncn3)cc2)CC1 [BGJ398] + C[C@]1(O)C[C@@H](c2nc(-c3ccc4ccc(-c5ccccc5)nc4c3)c3c(N)nccn32)C1 [Linsitinib] (partner 1 µM)
How it was run: as §1

Cell Line	relative viability ([1]; first compound 0.01 µM)	relative viability ([1]; first compound 0.1 µM)	relative viability ([1]; first compound 0.3162 µM)	relative viability ([1]; first compound 1 µM)	relative viability ([2]; first compound 0.01 µM)	relative viability ([2]; first compound 0.03162 µM)	relative viability ([2]; first compound 0.1 µM)	relative viability ([2]; first compound 0.3162 µM)	relative viability ([2]; first compound 1 µM)	relative viability ([1]; first compound 0.03162 µM)	relative viability ([3]; first compound 0.01 µM)	relative viability ([3]; first compound 0.03162 µM)	relative viability ([3]; first compound 0.1 µM)	relative viability ([3]; first compound 0.3162 µM)	relative viability ([3]; first compound 1 µM)	relative viability ([4]; first compound 0.01 µM)	relative viability ([4]; first compound 0.03162 µM)	relative viability ([4]; first compound 0.1 µM)	relative viability ([4]; first compound 0.3162 µM)	relative viability ([4]; first compound 1 µM)
NCI-H1650	0.487	0.56	0.273	0.396	0.476	0.493	0.537	0.422	0.448											
BEN	0.319	0.279	0.266	0.276	0.533	0.557	0.594	0.553	0.544	0.259	0.896	1.2	0.993	0.923	0.759	0.935	0.95	0.89	0.818	0.798
EMC-BAC-2	0.357	0.398	0.333	0.37	0.707	0.591	0.316	0.366	0.413	0.417	0.727	0.77	0.786	0.787	0.738	0.815	0.785	0.842	0.825	0.872
LU99A	0.268	0.281	0.308	0.332	0.472	0.437	0.542	0.451	0.486	0.284	0.532	0.49	0.534	0.487	0.411	0.524	0.47	0.575	0.51	0.441
ABC-1	0.435	0.442	0.403	0.408	1.61	0.855	1.04		0.937	0.505	0.96	1.04	1.03	1.15	0.836	0.685	1.01	0.746	0.999	0.658
NCI-H2170	0.742	0.706	0.619	0.707	0.823	0.814	0.847	0.821	0.861	0.606	0.815	0.756	0.938	0.734	0.853					
NCI-H1299											0.999	1.07	1	1.05	1.08	0.926	1.03	0.974	0.928	0.727
EBC-1											0.806	0.85	0.917	0.812	0.884	0.875	0.968	0.941	0.877	0.703
NCI-H2347	0.228	0.447	0.413	0.434	0.63	0.763	0.606	0.55	0.608	0.557	1.01	1.04	1.01	1.13	1.08	0.989	1.08	0.975	0.968	1
NCI-H1993	0.525	0.564	0.507	0.649	0.968	0.93	0.703	0.691	0.892	0.535	0.689	0.623	0.642	0.746	0.7	0.764	0.791	0.752	0.894	0.729
